Columns and labels:
OCI-LY3 cells = assay: Resazurin cell viability (proliferation) assay in OCI-LY3 DLBCL cells; assay type: cell-based; conditions: Homo sapiens, OCI-LY3 cells (BTK independent), 72 h, 50% growth inhibition vs vehicle, read-out: OCI-LY3 Prol GI50
Summary of the method: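 Cells were seeded at 1×10^4 per well and dosed 3 h later: 8-point 1:4 dilutions from 10 μM (OCI-LY3), in triplicate, 72 h at 37 °C. Resazurin (13 μg/ml final) was added for the last 2 h and fluorescence read at 530/600 nm. GI50 is relative to DMSO vehicle, typically from ≥2 independent experiments.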

TMD8 cells = assay: Resazurin cell viability (proliferation) assay in TMD8 DLBCL cells; assay type: cell-based; conditions: Homo sapiens, TMD8 cells (BTK dependent), 72 h, 50% growth inhibition vs vehicle, read-out: TMD8 Prol GI50
Summary of the method: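 TMD8 cells were seeded at 1×10^4 per well and treated 3 h later with compound, in an 8-point 1:4 dilution series starting at 1 μM, or DMSO, for 72 h at 37° C. Resazurin was added at 13 μg/ml final for the last 2 h, and fluorescence was read at ex 530/em 600 nm. GI50 versus vehicle was derived by curve fitting from triplicates.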

Structure (SMILES) | GI50 (OCI-LY3 cells) | GI50 (TMD8 cells)
Cc1c(NC(=O)c2ccc(C(C)(C)O)cc2F)cc(F)cc1-c1ncnc2[nH]c(-c3ccc(CCN4CCC5(CC4)CCN(C(=O)c4ccc(F)c(N6CCC(=O)NC6=O)c4)CC5)cc3)cc12 [Compound 47, N-(3-(6-(4-(2-(9-(3-(2,4-dioxotetrahydropyrimidin-1(2H)-yl)-4-fluorobenzoyl)-3,9-diazaspiro[5.5]undecan-3-yl)ethyl)phenyl)-7H-pyrrolo[2,3-d]pyrimidin-4-yl)-5-fluoro-2-methylphenyl)-2-fluoro-4-(2-hydroxypropan-2-yl)benzamide] | 4.58 µM | 0.53 nM
COc1ccc(C(=O)N2CCC3(CCN(CCc4ccc(-c5cc6c(-c7cc(F)cc(NC(=O)c8ccc(C(C)(C)O)cc8F)c7C)ncnc6[nH]5)cc4)CC3)CC2)cc1N1CCC(=O)NC1=O [Compound 31, N-(3-(6-(4-(2-(9-(3-(2,4-Dioxotetrahydropyrimidin-1(2H)-yl)-4-methoxybenzoyl)-3,9-diazaspiro[5.5]undecan-3-yl)ethyl)phenyl)-7H-pyrrolo[2,3-d]pyrimidin-4-yl)-5-fluoro-2-methylphenyl)-2-fluoro-4-(2-hydroxypropan-2-yl)benzamide] | 5.64 µM | 0.46 nM
COc1ccc(C(=O)N2CCC(OC3CCN(Cc4ccc(-c5cc6c(-c7cc(F)cc(NC(=O)c8ccc(C(C)(C)O)cc8F)c7C)ncnc6[nH]5)cc4)CC3)CC2)cc1N1CCC(=O)NC1=O [Compound 8, N-(3-(6-(4-((4-((1-(3-(2,4-dioxotetrahydropyrimidin-1(2H)-yl)-4-methoxybenzoyl)piperidin-4-yl)oxyl)piperidin-1-yl)methyl)phenyl)-7H-pyrrolo[2,3-d]pyrimidin-4-yl)-5-fluoro-2-methylphenyl)-2-fluoro-4-(2-hydroxypropan-2-yl)benzamide] | 4.85 µM | 0.39 nM
CCOc1ccc(C(=O)N2CCC3(CCN(Cc4ccc(-c5cc6c(-c7cc(F)cc(NC(=O)c8ccc(C(C)(C)O)cc8F)c7C)ncnc6[nH]5)cc4)CC3)CC2)cc1N1CCC(=O)NC1=O [Compound 4, N-(3-(6-(4-((9-(3-(2,4-Dioxotetrahydropyrimidin-1(2H)-yl)-4-ethoxybenzoyl)-3,9-diazaspiro[5.5]undecan-3-yl)methyl)phenyl)-7H-pyrrolo[2,3-d]pyrimidin-4-yl)-5-fluoro-2-methylphenyl)-2-fluoro-4-(2-hydroxypropan-2-yl)benzamide] | 4.69 µM | 1.84 nM
COc1ccc(C(=O)NCCN2CCOC3(CCN(Cc4ccc(-c5cc6c(-c7cc(F)cc(NC(=O)c8ccc(C(C)(C)O)cc8F)c7C)ncnc6[nH]5)cc4)CC3)C2)cc1N1CCC(=O)NC1=O [Compound 39, N-(3-(6-(4-((4-(2-(3-(2,4-dioxotetrahydropyrimidin-1(2H)-yl)-4-methoxybenzamido)ethyl)-1-oxa-4,9-diazaspiro[5.5]undecan-9-yl)methyl)phenyl)-7H-pyrrolo[2,3-d]pyrimidin-4-yl)-5-fluoro-2-methylphenyl)-2-fluoro-4-(2-hydroxypropan-2-yl)benzamide] | 7.16 µM | 4.79 nM
COc1ccc(C(=O)N2CCC3(CC2)CCN(C(C)(C)Cc2ccc(-c4cc5c(-c6cc(F)cc(NC(=O)c7ccc(C(C)(C)O)cc7F)c6C)ncnc5[nH]4)cc2)CC3)cc1N1CCC(=O)NC1=O [Compound 20, N-(3-(6-(4-(2-(9-(3-(2,4-Dioxotetrahydropyrimidin-1(2H)-yl)-4-methoxybenzoyl)-3,9-diazaspiro[5.5]undecan-3-yl)-2-methylpropyl)phenyl)-7H-pyrrolo[2,3-d]pyrimidin-4-yl)-5-fluoro-2-methylphenyl)-2-fluoro-4-(2-hydroxypropan-2-yl)benzamide] | 7.9 µM | 0.53 nM
Cc1c(NC(=O)c2ccc(C(C)(C)O)cc2F)cc(F)cc1-c1ncnc2[nH]c(-c3ccc(CN4CCC5(CC4)CCN(C(=O)c4ccc(F)c(N6CCC(=O)NC6=O)c4)CC5)cc3)cc12 [Compound 14, N-(3-(6-(4-((9-(3-(2,4-Dioxotetrahydropyrimidin-1(2H)-yl)-4-fluorobenzoyl)-3,9-diazaspiro[5.5]undecan-3-yl)methyl)phenyl)-7H-pyrrolo[2.3-d]pyrimidin-4-yl)-5-fluoro-2-methylphenyl)-2-fluoro-4-(2-hydroxypropan-2-yl)benzamide] | 5.98 µM | 1.02 nM
COc1ccc(C(=O)N2CCC(OC3CCN(CCc4ccc(-c5cc6c(-c7cc(F)cc(NC(=O)c8ccc(C(C)(C)O)cc8F)c7C)ncnc6[nH]5)cc4)CC3)CC2)cc1N1CCC(=O)NC1=O [Compound 34, N-(3-(6-(4-(2-(4-((1-(3-(2,4-Dioxotetrahydropyrimidin-1(2H)-yl)-4-methoxybenzoyl)piperidin-4-yl)oxyl)piperidin-1-yl)ethyl)phenyl)-7H-pyrrolo[2,3-d]pyrimidin-4-yl)-5-fluoro-2-methylphenyl)-2-fluoro-4-(2-hydroxypropan-2-yl)benzamide] | > 10 µM | 1.7 nM

The remaining compounds from weak to strong by GI50 (OCI-LY3 cells), led by results:

GI50 (OCI-LY3 cells) | Structure (SMILES) | GI50 (TMD8 cells)
4.46 µM | COc1ccc(C(=O)N2CCC(CN3CCC(Oc4ccc(-c5cc6c(-c7cc(F)cc(NC(=O)c8ccc(C(C)(C)O)cc8F)c7C)ncnc6[nH]5)cc4)CC3)CC2)cc1N1CCC(=O)NC1=O [Compound 19, N-(3-(6-(4-((1-((1-(3-(2,4-Dioxotetrahydropyrimidin-1(2H)-yl)-4-methoxybenzoyl)piperidin-4-yl)methyl)piperidin-4-yl)oxyl)phenyl)-7H-pyrrolo[2,3-d]pyrimidin-4-yl)-5-fluoro-2-methylphenyl)-2-fluoro-4-(2-hydroxypropan-2-yl)benzamide] | 0.45 nM
4.08 µM | Cc1ccc(C(=O)N2CCC3(CCN(Cc4ccc(-c5cc6c(-c7cc(F)cc(NC(=O)c8ccc(C(C)(C)O)cc8F)c7C)ncnc6[nH]5)cc4)CC3)CC2)cc1N1CCC(=O)NC1=O [Compound 27, N-(3-(6-(4-((9-(3-(2,4-Dioxotetrahydropyrimidin-1(2H)-yl)-4-methylbenzoyl)-3,9-diazaspiro[5.5]undecan-3-yl)methyl)phenyl)-7H-pyrrolo[2,3-d]pyrimidin-4-yl)-5-fluoro-2-methylphenyl)-2-fluoro-4-(2-hydroxypropan-2-yl)benzamide] | 0.4 nM
3.87 µM | COc1ccc(C(=O)N2CCC3(CCN(Cc4ccc(-c5cc6c(-c7cc(F)cc(NC(=O)c8ccc(C(C)(C)O)cc8F)c7C)ncnc6[nH]5)cc4)CC3)CC2)cc1N1CCC(=O)NC1=O [Compound 9, N-(3-(6-(4-((9-(3-(2,4-Dioxotetrahydropyrimidin-1(2H)-yl)-4-methoxybenzoyl)-3,9-diazaspiro[5.5]undecan-3-yl)methyl)phenyl)-7H-pyrrolo[2.3-d]pyrimidin-4-yl)-5-fluoro-2-methylphenyl)-2-fluoro-4-(2-hydroxypropan-2-yl)benzamide] | 0.52 nM
3.83 µM | Cc1c(NC(=O)c2ccc(C(C)(C)O)cc2F)cc(F)cc1-c1ncnc2[nH]c(-c3ccc(CCN4CCC5(CC4)CCN(C(=O)c4cccc(N6CCC(=O)NC6=O)c4)CC5)cc3)cc12 [Compound 12, N-(3-(6-(4-(2-(9-(3-(2,4-Dioxotetrahydropyrimidin-1(2H)-yl)benzoyl)-3,9-diazaspiro[5,5]undecan-3-yl)ethyl)phenyl)-7H-pyrrolo[2,3-d]pyrimidin-4-yl)-5-fluoro-2-methylphenyl)-2-fluoro-4-(2-hydroxypropan-2-yl)benzamide] | 0.93 nM

From patent publication US12441733B2, “Substituted 2,4-dioxotetrahydropyrimidines as intermediates in the synthesis of bruton's tyrosine kinase inhibitors” (Novartis AG, priority 2018, dated 2025)
